# Tested on: B cell receptor-mediated activation of B cells in human blood (CD69 expression)
# Assay: Inhibition of B cell activation in whole blood measured by CD69 expression
# Format: cell-based
# Details: anti-IgM stimulation, 20 hours, CD69-positive cells that are also CD20-positive, read-out: HWB IC50
# Method: Inhibition of B Cell Activation in Whole Blood Measured by CD69 Expression
# A procedure to test the ability of Btk inhibitors to suppress B cell receptor-mediated activation of B cells in human blood is as follows:
# Human whole blood (HWB) is obtained from healthy volunteers, with the following restrictions: 24 hr drug-free, non-smokers. Blood is collected by venipuncture into Vacutainer tubes anticoagulated with sodium heparin. Test compounds are diluted to ten times the desired starting drug concentration in PBS […], followed by three-fold serial dilutions in 10% DMSO in PBS to produce a nine point dose-response curve. […] HWB (100 μl) is added to each well, and after mixing the plates are incubated at 37 C, 5% CO2, 100% humidity for 30 minutes.
# Included are induced control, unstained and single stains for compensation adjustments and initial voltage settings. […] Supernatants are removed via suction and the remaining pellets are lysed again with another 1 ml of 1× Pharmingen Lyse Buffer, and plates are spun down as before. Supernatants are aspirated and remaining pellets are washed in FACs buffer (PBS+1% FBS). […] Samples are transferred to a 96 well plate suitable to be run on the HTS 96 well system on the BD LSR II flow cytometer.
# Using appropriate excitation and emission wavelengths for the fluorophores used, data are acquired and percent positive cell values are obtained using Cell Quest Software. Results are initially analyzed by FACS analysis software (Flow Jo).
row,Structure (SMILES),IC50 [nM]
1,"CCN1CCC(c2ccc(Nc3cc(-c4ccnc(-n5ncc6cc(C(C)(C)C)cc(F)c6c5=O)c4CO)nn(C)c3=O)nc2)CC1 [Compound I-14, 6-tert-Butyl-2-{4-[5-(1′-ethyl-1′,2′,3′,4′,5′,6′-hexahydro-[3,4′]bipyridinyl-6-ylamino)-1-methyl-6-oxo-1,6-dihydro-pyridazin-3-yl]-3-hydroxymethyl-pyridin-2-yl}-8-fluoro-2H-phthalazin-1-one]",6
2,"CCN1CCn2nc(Nc3cc(-c4ccnc(-n5ncc6cc(C(C)(C)C)cc(F)c6c5=O)c4CO)nn(C)c3=O)cc2C1 [Compound I-22, 6-tert-Butyl-2-{4-[5-(5-ethyl-4,5,6,7-tetrahydro-pyrazolo[1,5-a]pyrazin-2-ylamino)-1-methyl-6-oxo-1,6-dihydro-pyridazin-3-yl]-3-hydroxymethyl-pyridin-2-yl}-8-fluoro-2H-phthalazin-1-one]",44
